Results on 15 molecules are retold here after patent US9527859B2, “Amidopyridine derivative and use thereof” (Mitsubishi Tanabe Pharma Corporation, priority 2012, dated 2016).

Series [1] relates to Salmonella typhimurium TA104 strain. Type of series: cell-based. As to the method: Genotoxicity Test Using Salmonella typhimurium TA104 Strain Carrying a Reporter Gene Under the Control of DNA Repair Enzyme recN (Vitotox Test)
To prepare agents for stock of tester strain, Amp solution (50 mg/mL) and Tet solution (10 mg/mL) were prepared, and then LB-agar plate (35 mg/mL+Amp (100 μg/mL)+Tet ([…])) was prepared, and LB medium (20 mg/mL+Amp (100 μg/mL)+Tet (20 μg/mL)) was prepared. Then, LB medium for pre-incubation (10 mg/mL), LB medium for test (4 mg/mL) and enhancer reagent (50 mg (CaCl2.H2O)/mL) were prepared.
Freezing stock of bacterial strain was thawed to be streaked on LB-agar plate, and incubated in an incubator (TITEC, BIO-SHAKER BR-15) at 37° C. overnight. […]
A solution for positive control was prepared as below. […] When the test compound was completely dissolved, the highest concentration as prepared was determined to be a highest dose, and when a precipitate was found, a homogeneous suspension which was able to be pipetted was determined to be a highest dose.
After a fluorescent and luminescent photometer (Thermo Labsystem, Fluoroskan Ascent FL), plate and medium for test were set up, Genox and Cytox reaction solutions were prepared as below. Dilution factor as well as requisite amounts for medium for test, pre-incubation strain solution, Enhancer Reagent and S9 mix were calculated so that OD590 was set as about 0.03 for each culture solution. […]

In series [2] the test system is production of IL-17 in mouse splenocytes stimulated by recombinant mouse interleukin-23. Put plainly: Production of IL-17 induced when mouse splenocytes were stimulated by rm-IL-23 (ELISA). The format is cell-based. To be noted: Splenocyte, inhibition of IL-17 production, rm-IL-23 1 nmol/L, 72 hours. As to the method: Effect on Production of IL-17 Induced when Mouse Splenocytes were Stimulated by Recombinant Mouse Interleukin-23 (rm-IL-23)
RPMI1640 media (Sigma-Aldrich) were used as a medium, to which 50 units/mL penicillin G potassium/50 μg/mL streptomycin (Gibco) and […] 2-mercaptoethanol (Sigma-Aldrich) were added, and then thereto was added 10% of fetal calf serum (FCS; Cell Culture Technology) which was treated at 56° C. for 30 minutes to be inactivated, and the mixture was used in the Test. The test compound was dissolved in dimethylsulfoxide and then diluted with 10% FCS-containing RPMI1640 medium to a desired concentration to be used. The spleens were aseptically taken out from 6 to 7 week-old male DBA/1J mice (Charles River Japan, Inc.) and a single cell suspension of splenocytes was prepared, which was hemolyzed by hypotonic treatment with a mixed solution of 0.83% aqueous solution of ammonium chloride and Tris-HCl buffer of pH 7.65 (9:1). A cell suspension prepared by using 10% FCS-containing RPMI1640 medium was added to a flat-bottomed 96 well microtestplate (Coaster) at 2×10^5 cells/well. Thereto were added test compounds and rm-IL-23 (R&D systems) were diluted with a medium to 1 to 1,000 nmol/L and 1 nmol/L of the final concentration, respectively, and the mixture was cultured at 37° C., 5% carbon dioxide and 95% air for 72 hours. After completion of the culture, culture supernatant was sampled and production amounts of IL-17 therein were determined by ELISA method. After sampling the supernatant, WST-8 (Seikagaku Corporation) was added at 10 μl/well and cultured at 37° C., 5% carbon dioxide and 95% air for 4 hours. Then, absorbance (O.D.: Optical Density) at 450 nm was measured by a microplate reader and the value was adopted as an index of cell survivability. An inhibition rate was calculated according to the following formula on the basis of an average of production amounts of IL-17 and O.D. values of the well containing a test compound of each concentration. Inhibition (%)=(1−(Average value of well with addition of test compound)/(Average value of well without addition of test compound))×100
Based on the dose-response curve obtained by plotting the inhibition rate in the longitudinal axis and the concentration in the horizontal axis, the concentration of the compound which inhibits the level to 50% of the value of the control group (IC50) (nmol/L) was determined by linear regression analysis.
Background: ELISA stands for enzyme-linked immunosorbent assay.

With `Nc1cnc(N2CCC(O)CC2)c(C2CC2)c1` [1-(5-amino-3-cyclopropylpyridin-2-yl)piperidin-4-ol], the “Genotoxicity (Vitotox test)” value in series [1] is given as “negative”.
A word on the IC50: it is the midpoint of a concentration-inhibition curve. Turning to `Cc1cc(NC(=O)c2cnn(-c3ccc(C(F)(F)F)cn3)c2C)cnc1N1CCC(CC(C)(C)O)CC1` [Example 65, N-{6-[4-(2-hydroxy-2-methylpropyl)piperidin-1-yl]-5-methylpyridin-3-yl}-5-methyl-1-[5-(trifluoromethyl)pyridin-2-yl]-1H-pyrazole-4-carboxamide], the IC50 in series [2] turned out to be 5.35 nM.
`Cc1c(C(=O)Nc2cnc(N3CCC(CCO)CC3)c(C#N)c2)cnn1-c1ccc(Cl)cc1` [Example 51, 1-(4-chlorophenyl)-N-{5-cyano-6-[4-(2-hydroxyethyl)piperidin-1-yl]pyridin-3-yl}-5-methyl-1H-pyrazole-4-carboxamide]: in series [2], the IC50 worked out at 53.5 nM.
As for `COC(C)C1CCN(c2ncc(NC(=O)c3cnn(-c4ccc(C(F)(F)F)cn4)c3C)cc2C)CC1` (stereo not drawn) [Example 53, N-{6-[4-(1-methoxyethyl)piperidin-1-yl]-5-methylpyridin-3-yl}-5-methyl-1-[5-(trifluoromethyl)pyridin-2-yl]-1H-pyrazole-4-carboxamide], in series [2], the concentration for half-maximal inhibition (IC50) was 51.8 nM.
On to `Cc1cc(NC(=O)c2cnn(-c3ccc(Cl)cc3)c2C)cnc1N1CCC(C(C)(C)F)CC1` [Example 41, 1-(4-chlorophenyl)-N-{6-[4-(1-fluoro-1-methylethyl)piperidin-1-yl]-5-methylpyridin-3-yl}-5-methyl-1H-pyrazole-4-carboxamide], for which, in series [2], the IC50 is 112 nM.
As to `COCC1CCN(c2ncc(NC(=O)c3cnn(-c4ccc(C(F)(F)F)cc4)c3C)cc2C)CC1` [Example 33, N-{6-[4-(1-methoxymethyl)piperidin-1-yl]-5-methylpyridin-3-yl}-5-methyl-1-[4-(trifluoromethyl)phenyl]-1H-pyrazole-4-carboxamide], in series [2], the IC50 is 153 nM.
For the molecule `CC(=O)OC1CCN(c2ncc(NC(=O)c3cnn(-c4ccc(Cl)cc4)c3C)cc2C#N)CC1` [Example 19, acetic acid (1-{5-[1-(4-chlorophenyl)-5-methyl-1H-pyrazole-4-carboxamide]-3-cyanopyridin-2-yl}piperidin-4-yl)ester], the IC50 in series [2] was determined as 213 nM.
For `COc1ccc(-n2ncc(C(=O)Nc3cnc(N4CCC(C(C)(C)F)CC4)c(C)c3)c2C)cc1` [Example 35, N-{6-[4-(1-fluoro-1-methylethyl)piperidin-1-yl]-5-methylpyridin-3-yl}-1-(4-methoxyphenyl)-5-methyl-1H-pyrazole-4-carboxamide], the IC50 in series [2] is 150 nM.
For `Cc1cc(NC(=O)c2cnn(-c3ncc(Cl)cc3Cl)c2C)cnc1N1CCC(C(C)(C)O)CC1` [Example 59, 1-(3,5-dichloropyridin-2-yl)-N-{6-[4-(1-hydroxy-1-methylethyl)piperidin-1-yl]-5-methylpyridin-3-yl}-5-methyl-1H-pyrazole-4-carboxamide], the IC50 in series [2] came to 31.8 nM.
Still for that read-out and setting: as for `Cc1c(C(=O)Nc2cnc(N3CCC(=O)CC3)c(C3CC3)c2)cnn1-c1ccc(Cl)cc1` [Example 70, 1-(4-chlorophenyl)-N-[5-cyclopropyl-6-(piperidin-4-on-1-yl)pyridin-3-yl]-5-methyl-1H-pyrazole-4-carboxamide], the figure is 205 nM; as for `Cc1cc(NC(=O)c2cnn(-c3ccc(Cl)cc3)n2)cnc1N1CCC(C(C)(C)O)CC1` [Example 85, 2-(4-chlorophenyl)-N-{6-[4-(1-hydroxy-1-methylethyl)piperidin-1-yl]-5-methylpyridin-3-yl}-2H-[1,2,3]triazole-4-carboxamide], 67.6 nM.
Same read-out and setting: under `Cc1cc(NC(=O)c2cnn(-c3ccc(Cl)cn3)c2C)cnc1N1CCC(C(C)(C)F)CC1` [Example 38, 1-(5-chloropyridin-2-yl)-N-{6-[4-(1-fluoro-1-methylethyl)piperidin-1-yl]-5-methylpyridin-3-yl}-5-methyl-1H-pyrazole-4-carboxamide] stands 140 nM; under `COC1CCN(c2ncc(NC(=O)c3cnn(-c4ccc(Cl)cc4)c3C)cc2C)CC1` [Example 16, 1-(4-chlorophenyl)-N-[6-(4-methoxypiperidin-1-yl)-5-methylpyridin-3-yl]-5-methyl-1H-pyrazole-4-carboxamide], 264 nM; under `Cc1cc(NC(=O)c2cnc(-c3ccc(Cl)cc3)s2)cnc1N1CCC(C(C)(C)O)CC1` [Example 81, 2-(4-chlorophenyl)-N-{6-[4-(1-hydroxy-1-methylethyl)piperidin-1-yl]-5-methylpyridin-3-yl}thiazole-5-carboxamide], 66.8 nM.
On to `Cc1cc(NC(=O)c2csc(-c3ccc(Cl)cc3)c2)cnc1N1CCC(C(C)(C)O)CC1` [Example 79, 2-(4-chlorophenyl)-N-{6-[4-(1-hydroxy-1-methylethyl)piperidin-1-yl]-5-methylpyridin-3-yl}thiophene-4-carboxamide], for which, in series [2], the IC50 is 43.6 nM.
